# According to patent US20110040086A1, “Novel Beta-Lactam Antibiotics, Methods for Their Production, and Their Use” (DRITTE PATENTPORTFOLIO BETEILIGUNGSGESELLSCHAFT MB, priority 2007, published 2011):
# Assays:
# E. faecalis 945 = experiment: agar diffusion test (Test System II, multi-resistant germs); type: cell-based, Enterococcus faecalis; set-up: key: r = resistant (no detectable zone of inhibition)
# Outline: (§1)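 A McFarland 0.5 bacterial suspension in physiological saline is spread vertically, horizontally and transversely over Müller-Hinton agar II. Three sensi-discs bearing 10, 50 and 100 μg of test compound go onto each plate, which then incubates at 37 °C for 18-20 h before zone diameters are recorded.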
# S. epidermidis 1068 = experiment: as above; type: cell-based, Staphylococcus epidermidis
# Outline: as §1
# S. epidermidis 1071 = experiment: as above; type: cell-based, Staphylococcus epidermidis
# Outline: as §1
# S. epidermidis 563 = experiment: as above; type: cell-based, Staphylococcus epidermidis
# Outline: as §1
# S. epidermidis 847 = experiment: as above; type: cell-based, Staphylococcus epidermidis
# Outline: as §1
# [1] = logP value by HPLC according to Donovan et al.; conditions: HPLC with methanol/0.1% phosphoric acid gradient, pH 2
# Description: • Operating temperature 18-24° C. • Flow 1.5 mL/min • Linear gradient (methanol/0.1% phosphoric acid pH 2) from 10% to 100% methanol in 9.4 min, equilibrium time between 2 runs 6 min
# ca. 0.5 mg of analyte is added to 0.5 ml of a standard solution (440 mg methyl phenyl sulfonate and 380 μl toluene in 150 mL methanol). 2 μl of this sample solution is injected.
# Because the distribution coefficients of the two standards running in each test are known, the distribution coefficient of the analytes can be determined from the relationships of the analyte/standard retention times.
# S. aureus 38418 = experiment: agar diffusion test (Test System II, multi-resistant germs); type: cell-based, Staphylococcus aureus
# Outline: as §1
# S. aureus ATCC 6538 = experiment: as above; type: cell-based, Staphylococcus aureus
# Outline: as §1
# [2] = test system: Enterococcus faecalis 769; experiment: as above; type: cell-based; set-up: key: r = resistant (no detectable zone of inhibition)
# Outline: as §1
# [3] = test system: Staphylococcus aureus 315; experiment: as above; type: cell-based; set-up: key: r = resistant (no detectable zone of inhibition)
# Outline: as §1
# [4] = test system: Escherichia coli SBUG 1135; experiment: agar diffusion test (Test System 1, antimicrobial effect); type: cell-based
# Outline: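 E. coli SBUG 1135 grown 17 h at 37° C, 180 rpm, diluted 1:100 and seeded in nutrient agar at ~10^6 cells. Discs loaded with 10, 50 or 100 μg compound (methanol or water); inhibition-zone diameter (mm) read after 20 h at 37° C.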
# S. aureus 33490 = experiment: agar diffusion test (Test System II, multi-resistant germs); type: cell-based, Staphylococcus aureus; set-up: key: r = resistant (no detectable zone of inhibition)
# Outline: as §1
# S. aureus 520 = experiment: as above; type: cell-based, Staphylococcus aureus; set-up: key: r = resistant (no detectable zone of inhibition)
# Outline: as §1
# S. aureus 39105 = experiment: as above; type: cell-based, Staphylococcus aureus; set-up: key: r = resistant (no detectable zone of inhibition)
# Outline: as §1
# S. aureus 34289 = experiment: as above; type: cell-based, Staphylococcus aureus; set-up: key: r = resistant (no detectable zone of inhibition)
# Outline: as §1
# S. aureus 526 = experiment: as above; type: cell-based, Staphylococcus aureus; set-up: key: r = resistant (no detectable zone of inhibition)
# Outline: as §1
# S. aureus 36881 = experiment: as above; type: cell-based, Staphylococcus aureus; set-up: key: r = resistant (no detectable zone of inhibition)
# Outline: as §1
# [5] = test system: S. aureus North Germany strain; experiment: as above; type: cell-based, Staphylococcus aureus; set-up: key: r = resistant (no detectable zone of inhibition)
# Outline: as §1
# B. subtilis AWD 166 = experiment: agar diffusion test (antimicrobial effect); type: cell-based, Bacillus subtilis
# Outline: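 Nutrient agar seeded with B. subtilis AWD 166 to give dense non-confluent colonies; compounds in methanol or distilled water applied to discs at 10, 50, 100 μg. After 20 h at 37 °C, inhibition zone diameter measured in mm.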
# S. epidermidis 125 = experiment: agar diffusion test (Test System II, multi-resistant germs); type: cell-based, Staphylococcus epidermidis
# Outline: as §1
# [6] = test system: Bacillus megaterium SBUG 1152; experiment: agar diffusion test (Test System 1, antimicrobial effect); type: cell-based
# Outline: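 B. megaterium SBUG 1152 grown overnight (17 h, 37° C., 180 rpm) and seeded at 10^6 cells per 10 ml nutrient agar. Compound at 10, 50 and 100 μg, dissolved in methanol or water, applied to paper discs. Inhibition-zone diameter (mm) read after 20 h at 37° C.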
smiles,measurement,setting,value
"N[C@@H](C(=O)N[C@@H]1C(=O)N2C(C(=O)O)=C(Cl)CS[C@H]12)c1ccccc1 [2c, Cefaclor, reference compound]",Diameter of zone of inhibition,E. faecalis 945; Quantity n 0.019,r
same,Diameter of zone of inhibition,E. faecalis 945; Quantity n 0.1,8 mm
same,Diameter of zone of inhibition,E. faecalis 945; Quantity n 0.19,12 mm
same,Diameter of zone of inhibition,S. epidermidis 1068; Quantity n 0.019,22 mm
same,Diameter of zone of inhibition,S. epidermidis 1068; Quantity n 0.1,24 mm
same,Diameter of zone of inhibition,S. epidermidis 1068; Quantity n 0.19,30 mm
same,Diameter of zone of inhibition,S. epidermidis 1071; Quantity n 0.019,28 mm
same,Diameter of zone of inhibition,S. epidermidis 1071; Quantity n 0.1,30 mm
same,Diameter of zone of inhibition,S. epidermidis 1071; Quantity n 0.19,32 mm
same,Diameter of zone of inhibition,S. epidermidis 563; Quantity n 0.019,30 mm
same,Diameter of zone of inhibition,S. epidermidis 563; Quantity n 0.1,34 mm
same,Diameter of zone of inhibition,S. epidermidis 563; Quantity n 0.19,36 mm
same,Diameter of zone of inhibition,S. epidermidis 847; Quantity n [mol] 0.019,14 mm
same,Diameter of zone of inhibition,S. epidermidis 847; Quantity n [mol] 0.1,24 mm
same,Diameter of zone of inhibition,S. epidermidis 847; Quantity n [mol] 0.19,28 mm
same,chromatographic logP,[1],-3.28
same,Diameter of zone of inhibition,S. aureus 38418; Quantity n [mol] 0.019,26 mm
same,Diameter of zone of inhibition,S. aureus 38418; Quantity n [mol] 0.1,34 mm
same,Diameter of zone of inhibition,S. aureus 38418; Quantity n [mol] 0.19,38 mm
same,Diameter of zone of inhibition,S. aureus ATCC 6538; Quantity n 0.019,30 mm
same,Diameter of zone of inhibition,S. aureus ATCC 6538; Quantity n 0.1,38 mm
same,Diameter of zone of inhibition,S. aureus ATCC 6538; Quantity n 0.19,40 mm
same,Diameter of zone of inhibition,[2]; Quantity n 0.019,r^2
same,Diameter of zone of inhibition,[2]; Quantity n 0.1,8 mm
same,Diameter of zone of inhibition,[2]; Quantity n 0.19,14 mm
same,Diameter of zone of inhibition,[3]; Quantity n 0.019,r
same,Diameter of zone of inhibition,[3]; Quantity n 0.1,10 mm
same,Diameter of zone of inhibition,[3]; Quantity n 0.19,12 mm
same,Diameter of zone of inhibition,[4]; Quantity n 0.019,24 mm
same,Diameter of zone of inhibition,[4]; Quantity n 0.1,30 mm
same,Diameter of zone of inhibition,[4]; Quantity n 0.19,32 mm
same,Diameter of zone of inhibition,S. aureus 33490; Quantity n [μmol] 0.019,24 mm
same,Diameter of zone of inhibition,S. aureus 33490; Quantity n [μmol] 0.1,30 mm
same,Diameter of zone of inhibition,S. aureus 33490; Quantity n [μmol] 0.19,32 mm
same,Diameter of zone of inhibition,S. aureus 520; Quantity n [mol] 0.019,r
same,Diameter of zone of inhibition,S. aureus 520; Quantity n [mol] 0.1,10 mm
same,Diameter of zone of inhibition,S. aureus 520; Quantity n [mol] 0.19,14 mm
same,Diameter of zone of inhibition,S. aureus 39105; Quantity n 0.019,22 mm
same,Diameter of zone of inhibition,S. aureus 39105; Quantity n 0.1,24 mm
same,Diameter of zone of inhibition,S. aureus 39105; Quantity n 0.19,28 mm
same,Diameter of zone of inhibition,S. aureus 34289; Quantity n [mol] 0.019,r
same,Diameter of zone of inhibition,S. aureus 34289; Quantity n [mol] 0.1,r
same,Diameter of zone of inhibition,S. aureus 34289; Quantity n [mol] 0.19,10 mm
same,Diameter of zone of inhibition,S. aureus 526; Quantity n 0.019,r
same,Diameter of zone of inhibition,S. aureus 526; Quantity n 0.1,8 mm
same,Diameter of zone of inhibition,S. aureus 526; Quantity n 0.19,12 mm
same,Diameter of zone of inhibition,S. aureus 36881; Quantity n 0.019,r
same,Diameter of zone of inhibition,S. aureus 36881; Quantity n 0.1,12 mm
same,Diameter of zone of inhibition,S. aureus 36881; Quantity n 0.19,18 mm
same,Diameter of zone of inhibition,[5]; Quantity n 0.019,r
same,Diameter of zone of inhibition,[5]; Quantity n 0.1,10 mm
same,Diameter of zone of inhibition,[5]; Quantity n 0.19,14 mm
same,Diameter of zone of inhibition,B. subtilis AWD 166; Quantity n 0.019,36 mm
same,Diameter of zone of inhibition,B. subtilis AWD 166; Quantity n 0.1,38 mm
same,Diameter of zone of inhibition,B. subtilis AWD 166; Quantity n 0.19,40 mm
same,Diameter of zone of inhibition,S. epidermidis 125; Quantity n 0.019,26 mm
same,Diameter of zone of inhibition,S. epidermidis 125; Quantity n 0.1,34 mm
same,Diameter of zone of inhibition,S. epidermidis 125; Quantity n 0.19,36 mm
same,Diameter of zone of inhibition,[6]; Quantity n 0.019,36^1 mm
same,Diameter of zone of inhibition,[6]; Quantity n 0.1,38 mm
same,Diameter of zone of inhibition,[6]; Quantity n 0.19,40 mm
